Experimental findings from ChEMBL document CHEMBL3045719, “Insecticidal and Neuroblocking Activities toward American Cockroach (Periplaneta americana L.) of Imidacloprid Metabolites, 5-Hydroxy-, 4,5-Dihydroxy- and 4,5-Dehydroimidacloprid” (J Pestic Sci, 2004) are described below.

The structures appear in SMILES notation. Activity calls are given as the source filed them. The calls are words filed in the database; no cut-off is given here. A value given as a limit tells only on which side of the number the result lay.

Series [1] concerns Periplaneta americana. Briefly: Insecticidal activity against adult form of Periplaneta americana (American cockroach) assessed as paralysis at 19 nmol injected into abdominal region measured after 32 hr. The series is classed as functional, organism-based.
In series [2] the test system is Periplaneta americana. Put plainly: Insecticidal activity against adult form of Periplaneta americana (American cockroach) assessed as paralysis at 19 nmol injected into abdominal region measured after 24 hr. It counts as functional, organism-based.
Series [3] concerns Periplaneta americana. Put plainly: Insecticidal activity against adult form of Periplaneta americana (American cockroach) assessed as paralysis at 19 nmol injected into abdominal region measured after 13 hr. The series is classed as functional, organism-based.
Series [4] has as its system Periplaneta americana. Briefly: Insecticidal activity against adult form of Periplaneta americana (American cockroach) assessed as paralysis at 19 nmol injected into abdominal region measured after 8 hr. It counts as functional, organism-based.
Series [5] has as its system Periplaneta americana. Briefly: Insecticidal activity against adult form of Periplaneta americana (American cockroach) assessed as paralysis at 19 nmol injected into abdominal region measured after 3 hr. It counts as functional, organism-based.
For series [6], the system named is Periplaneta americana. Put plainly: Insecticidal activity against adult form of Periplaneta americana (American cockroach) assessed as paralysis at 19 nmol injected into abdominal region measured after 2 hr. The series is classed as functional, organism-based.
For series [7], the system named is Periplaneta americana. Briefly: Insecticidal activity against adult form of Periplaneta americana (American cockroach) assessed as paralysis at 19 nmol injected into abdominal region measured after 1 hr. The series is classed as functional, organism-based.
The subject of series [8] is Periplaneta americana. Briefly: Insecticidal activity against adult form of Periplaneta americana (American cockroach) assessed as concentration required for neuroblock in excised central nerve cord. The series is classed as functional.
Series [9] deals with Periplaneta americana. Put plainly: Insecticidal activity against adult form of Periplaneta americana (American cockroach) assessed as paralysis compound injected into abdominal region measured after 24 hr. It counts as functional.
Series [10] has as its target T1, Nicotinic acetylcholine receptor alpha 5 subunit (Musca domestica) (UniProt A9XFY4).
T1 sequence (whole entry): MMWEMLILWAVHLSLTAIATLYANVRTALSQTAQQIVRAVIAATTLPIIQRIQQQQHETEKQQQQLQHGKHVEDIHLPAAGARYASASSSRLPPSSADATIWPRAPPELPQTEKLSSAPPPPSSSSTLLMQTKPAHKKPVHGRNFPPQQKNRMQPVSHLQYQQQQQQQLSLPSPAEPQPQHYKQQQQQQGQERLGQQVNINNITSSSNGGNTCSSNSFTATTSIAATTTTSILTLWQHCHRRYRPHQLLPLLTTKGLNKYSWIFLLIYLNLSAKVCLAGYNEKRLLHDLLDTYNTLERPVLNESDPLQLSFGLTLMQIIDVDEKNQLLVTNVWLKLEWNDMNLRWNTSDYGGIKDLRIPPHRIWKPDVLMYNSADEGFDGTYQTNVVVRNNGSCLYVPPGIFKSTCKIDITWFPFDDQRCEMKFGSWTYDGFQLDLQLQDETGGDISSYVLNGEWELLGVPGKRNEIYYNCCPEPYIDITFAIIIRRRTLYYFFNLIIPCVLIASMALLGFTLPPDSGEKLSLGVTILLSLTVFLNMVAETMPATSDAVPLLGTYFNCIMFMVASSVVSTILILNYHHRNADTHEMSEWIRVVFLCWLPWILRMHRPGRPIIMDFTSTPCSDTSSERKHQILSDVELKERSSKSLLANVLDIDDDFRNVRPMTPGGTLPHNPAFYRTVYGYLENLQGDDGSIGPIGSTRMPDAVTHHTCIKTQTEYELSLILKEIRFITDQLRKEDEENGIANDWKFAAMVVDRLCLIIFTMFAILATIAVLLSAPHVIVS
Put plainly: Binding affinity to nicotinic acetylcholine receptor in Musca domestica (house fly) head membrane relative to imidacloprid.

The test system of series [11] is Periplaneta americana. Put plainly: Ratio of imidacloprid efficacy to compound efficacy adult form of Periplaneta americana (American cockroach) assessed as concentration required for neuroblock in excised central nerve cord. It counts as functional.
A further series relates to Myzus persicae. Briefly: Ratio of imidacloprid efficacy to compound efficacy for po dosed Myzus persicae (green peach aphid). The series is classed as functional.
A further series concerns Bemisia tabaci. Put plainly: Ratio of imidacloprid efficacy to compound efficacy for po dosed Bemisia tabaci (sweet potato whitefly). It counts as functional.
The next series concerns Aphis gossypii. Briefly: Ratio of imidacloprid efficacy to compound efficacy for po dosed Aphis gossypii (cotton aphid). The series is classed as functional.
Series [12] is described as follows: Lipophilicity, log P of the compound. It counts as physicochemical. The following applies: octanol/water.
Series [13] deals with Periplaneta americana. Put plainly: Ratio of imidacloprid MLD to compound MLD for adult form of Periplaneta americana (American cockroach) assessed as paralysis compound injected into abdominal region measured after 24 hr. It counts as functional.
In series [14] the test system is Periplaneta americana. Put plainly: Insecticidal activity against adult form of Periplaneta americana (American cockroach) assessed as paralysis at 1.1 nmol injected into abdominal region measured after 24 hr. It counts as functional, organism-based.
The subject of series [15] is Periplaneta americana. Briefly: Insecticidal activity against adult form of Periplaneta americana (American cockroach) assessed as paralysis at 1.1 nmol injected into abdominal region measured after 13 hr. It counts as functional, organism-based.
In series [16] the test system is Periplaneta americana. Briefly: Insecticidal activity against adult form of Periplaneta americana (American cockroach) assessed as paralysis at 1.1 nmol injected into abdominal region measured after 3 hr. The series is classed as functional, organism-based.
Series [17] concerns Periplaneta americana. Briefly: Insecticidal activity against adult form of Periplaneta americana (American cockroach) assessed as paralysis at 1.1 nmol injected into abdominal region measured after 8 hr. It counts as functional, organism-based.
Series [18] has as its system Periplaneta americana. Put plainly: Insecticidal activity against adult form of Periplaneta americana (American cockroach) assessed as paralysis at 1.1 nmol injected into abdominal region measured after 2 hr. The series is classed as functional, organism-based.
Series [19] has as its system Periplaneta americana. Briefly: Insecticidal activity against adult form of Periplaneta americana (American cockroach) assessed as paralysis at 1.1 nmol injected into abdominal region measured after 1 hr. It counts as functional, organism-based.
In series [20] the test system is Periplaneta americana. Briefly: Insecticidal activity against adult form of Periplaneta americana (American cockroach) assessed as paralysis at 1.1 nmol injected into abdominal region measured after 32 hr. The series is classed as functional, organism-based.
Series [21] concerns Periplaneta americana. Put plainly: Insecticidal activity against adult form of Periplaneta americana (American cockroach) assessed as paralysis at 8.4 nmol stored at 4 degC for 10 days injected into abdominal region measured after 2 hr. It counts as functional, organism-based.
Series [22] relates to Periplaneta americana. Briefly: Insecticidal activity against adult form of Periplaneta americana (American cockroach) assessed as paralysis at 8.4 nmol stored at 4 degC for 10 days injected into abdominal region measured after 1 hr. It counts as functional, organism-based.
The test system of series [23] is Periplaneta americana. Briefly: Insecticidal activity against adult form of Periplaneta americana (American cockroach) assessed as paralysis at 8.4 nmol injected into abdominal region measured after 24 hr. It counts as functional, organism-based.
In series [24] the test system is Periplaneta americana. Put plainly: Insecticidal activity against adult form of Periplaneta americana (American cockroach) assessed as paralysis at 8.4 nmol injected into abdominal region measured after 13 hr. The series is classed as functional, organism-based.
The test system of series [25] is Periplaneta americana. Put plainly: Insecticidal activity against adult form of Periplaneta americana (American cockroach) assessed as paralysis at 8.4 nmol injected into abdominal region measured after 8 hr. The series is classed as functional, organism-based.
In series [26] the test system is Periplaneta americana. Briefly: Insecticidal activity against adult form of Periplaneta americana (American cockroach) assessed as paralysis at 8.4 nmol injected into abdominal region measured after 3 hr. It counts as functional, organism-based.
Series [27] concerns Periplaneta americana. Briefly: Insecticidal activity against adult form of Periplaneta americana (American cockroach) assessed as paralysis at 8.4 nmol injected into abdominal region measured after 2 hr. The series is classed as functional, organism-based.
Series [28] relates to Periplaneta americana. Briefly: Insecticidal activity against adult form of Periplaneta americana (American cockroach) assessed as paralysis at 8.4 nmol injected into abdominal region measured after 1 hr. The series is classed as functional, organism-based.
In series [29] the test system is Periplaneta americana. Put plainly: Insecticidal activity against adult form of Periplaneta americana (American cockroach) assessed as paralysis at 8.4 nmol injected into abdominal region measured after 32 hr. It counts as functional, organism-based.
Series [30] concerns Periplaneta americana. Put plainly: Insecticidal activity against adult form of Periplaneta americana (American cockroach) assessed as paralysis at 8.4 nmol stored at 4 degC for 10 days injected into abdominal region measured after 3 hr. It counts as functional, organism-based.
Series [31] can be described thus: Half life in Apis mellifera (honey bee). It counts as ADME, organism-based. The following applies: in vivo.
The subject of series [32] is Periplaneta americana. Put plainly: Insecticidal activity against adult form of Periplaneta americana (American cockroach) assessed as paralysis at 250 nmol injected into abdominal region measured after 1 to 32 hr. The series is classed as functional, organism-based.

Regarding `O=[N+]([O-])Nc1nccn1Cc1ccc(Cl)nc1` [DEHYDROIMIDACLOPRID], the result in the series with Periplaneta americana [1], with Periplaneta americana [2], in the series on Periplaneta americana [3], in the series on Periplaneta americana [4], with Periplaneta americana [5] and in the series on Periplaneta americana [6] was Active. Further, in the series with Periplaneta americana [7], the result was Active. Also, in the series with Periplaneta americana [8], the Activity is 49 µM. Further, in the series with Periplaneta americana [9], the MLD is 19 nmol. Moreover, the Ratio in series [10] is 3; in the series on Periplaneta americana [11] it was 20; with Myzus persicae, over 10; with Bemisia tabaci, over 10; in the series with Aphis gossypii, over 10; with Periplaneta americana [13], 10. Moreover, the logP in [12] is 0.45.
Take `O=[N+]([O-])/N=C1\NCCN1Cc1ccc(Cl)nc1` [IMIDACLOPRID]: the result with Periplaneta americana [14], with Periplaneta americana [15], with Periplaneta americana [16], with Periplaneta americana [17], in the series on Periplaneta americana [18] and in the series with Periplaneta americana [19] was Active. For the same compound, in the series on Periplaneta americana [8], the Activity came to 2.3 µM. The MLD in the series with Periplaneta americana [9] is given as 1.1 nmol. The outcome in the series on Periplaneta americana [20] was inactive.
With `O=[N+]([O-])/N=C1\NCC(O)N1Cc1ccc(Cl)nc1` (centres undefined) [5-HYDROXYIMIDACLOPRID], the outcome in the series on Periplaneta americana [21], with Periplaneta americana [22], with Periplaneta americana [23], in the series with Periplaneta americana [24], with Periplaneta americana [25] and in the series on Periplaneta americana [26] was Active. In addition, the outcome with Periplaneta americana [27] and in the series on Periplaneta americana [30] was Active. In the series on Periplaneta americana [8], the Activity came to 150 µM. For the same compound, in the series with Periplaneta americana [9], the MLD is listed as 11 nmol. The Ratio is 20 in the series with Periplaneta americana [11] and 10 in the series on Periplaneta americana [13]. In addition, in [12], the log partition coefficient (logP) is 8. For the same compound, the result with Periplaneta americana [28] and in the series on Periplaneta americana [29] was inactive.
Compound `O=[N+]([O-])NC1=NCCN1Cc1ccc(Cl)nc1` [IMIDACLOPRID] had a half-life in [31] of 270 min.
As for `O=[N+]([O-])/N=C1\NC(O)C(O)N1Cc1ccc(Cl)nc1` (centres undefined) [4,5-DIHYDROXYIMIDACLOPRID], the Activity in the series with Periplaneta americana [8] was over 370 µM. Moreover, the MLD in the series on Periplaneta americana [9] is on record as over 250 nmol. Further, the outcome in the series with Periplaneta americana [32] was inactive.
